Test results: ChEMBL document CHEMBL3259703, “Synthesis and preliminary biological evaluation of 1,2,3-triazole-Jaspine B hybrids as potential cytotoxic agents” (Eur J Med Chem, 2014)

Key:
MCF7 [1] = test: Antiproliferative activity against human MCF7 cells after 48 hrs by MTT assay; format: functional, cell-based; details: MCF7, 48 h
[2] = Antiproliferative activity against human EC9706 cells after 48 hrs by MTT assay; format: functional, cell-based; details: EC9706, 48 h
MGC-803 [3] = test: Antiproliferative activity against human MGC803 cells after 48 hrs by MTT assay; format: functional, cell-based; details: MGC-803, 48 h
MCF7 [4] = test: Induction of apoptosis in human MCF7 cells assessed as early apoptotic cells at 8 uM after 8 hrs using Annexin V/PI double staining by flow cytometry (reference value: 8.2 %); format: functional
MCF7 [5] = test: Induction of apoptosis in human MCF7 cells assessed as viable cells at 2 uM after 8 hrs using Annexin V/PI double staining by flow cytometry (reference value: 84.3 %); format: functional; details: MCF7, 8 h, read-out: Activity
MCF7 [6] = test: Induction of apoptosis in human MCF7 cells assessed as early apoptotic cells at 2 uM after 16 hrs using Annexin V/PI double staining by flow cytometry (reference value: 11.1 %); format: functional
MCF7 [7] = test: Cell cycle arrest in human MCF7 cells assessed as accumulation at S phase at 4 uM after 16 hrs using propidium iodide staining by flow cytometry (reference value: 30.05 %); format: functional
MCF7 [8] = test: Cell cycle arrest in human MCF7 cells assessed as accumulation at G2/M phase at 2 uM after 16 hrs using propidium iodide staining by flow cytometry (reference value: 20.08 %); format: functional
MCF7 [9] = test: Induction of apoptosis in human MCF7 cells assessed as late apoptotic cells at 4 uM after 8 hrs using Annexin V/PI double staining by flow cytometry (reference value: 6.8 %); format: functional
MCF7 [10] = test: Induction of apoptosis in human MCF7 cells assessed as necrotic cells at 2 uM after 16 hrs using Annexin V/PI double staining by flow cytometry (reference value: 0.7 %); format: functional
MCF7 [11] = test: Cell cycle arrest in human MCF7 cells assessed as accumulation at G2/M phase at 4 uM after 16 hrs using propidium iodide staining by flow cytometry (reference value: 20.08 %); format: functional
MCF7 [12] = test: Cell cycle arrest in human MCF7 cells assessed as accumulation at G0/G1 phase at 8 uM after 16 hrs using propidium iodide staining by flow cytometry (reference value: 46.01 %); format: functional
MCF7 [13] = test: Induction of apoptosis in human MCF7 cells assessed as early apoptotic cells at 2 uM after 8 hrs using Annexin V/PI double staining by flow cytometry (reference value: 8.2 %); format: functional
MCF7 [14] = test: Induction of apoptosis in human MCF7 cells assessed as viable cells at 2 uM after 16 hrs using Annexin V/PI double staining by flow cytometry (reference value: 87.5 %); format: functional; details: MCF7, 16 h, read-out: Activity
MCF7 [15] = test: Cell cycle arrest in human MCF7 cells assessed as accumulation at G0/G1 phase at 8 uM after 8 hrs using propidium iodide staining by flow cytometry (reference value: 47.36 %); format: functional
MCF7 [16] = test: Cell cycle arrest in human MCF7 cells assessed as accumulation at S phase at 4 uM after 8 hrs using propidium iodide staining by flow cytometry (reference value: 33.03 %); format: functional
MCF7 [17] = test: Cell cycle arrest in human MCF7 cells assessed as accumulation at G2/M phase at 4 uM after 8 hrs using propidium iodide staining by flow cytometry (reference value: 19.35 %); format: functional
MCF7 [18] = test: Cell cycle arrest in human MCF7 cells assessed as accumulation at G0/G1 phase at 2 uM after 8 hrs using propidium iodide staining by flow cytometry (reference value: 47.36 %); format: functional
MCF7 [19] = test: Cell cycle arrest in human MCF7 cells assessed as accumulation at S phase at 2 uM after 16 hrs using propidium iodide staining by flow cytometry (reference value: 30.05 %); format: functional
[20] = Ratio of IC50 Jaspine B to compound IC50 for human EC9706 cells after 48 hrs by MTT assay; format: functional
MGC-803 [21] = test: Ratio of IC50 Jaspine B to compound IC50 for human MGC803 cells after 48 hrs by MTT assay; format: functional
MCF7 [22] = test: Cell cycle arrest in human MCF7 cells assessed as accumulation at G2/M phase at 8 uM after 16 hrs using propidium iodide staining by flow cytometry (reference value: 20.08 %); format: functional
MCF7 [23] = test: Induction of apoptosis in human MCF7 cells assessed as necrotic cells at 4 uM after 8 hrs using Annexin V/PI double staining by flow cytometry (reference value: 0.6 %); format: functional
MCF7 [24] = test: Cell cycle arrest in human MCF7 cells assessed as accumulation at G0/G1 phase at 4 uM after 8 hrs using propidium iodide staining by flow cytometry (reference value: 47.36 %); format: functional
MCF7 [25] = test: Induction of apoptosis in human MCF7 cells assessed as early apoptotic cells at 8 uM after 16 hrs using Annexin V/PI double staining by flow cytometry (reference value: 11.1 %); format: functional
MCF7 [26] = test: Induction of apoptosis in human MCF7 cells assessed as late apoptotic cells at 4 uM after 16 hrs using Annexin V/PI double staining by flow cytometry (reference value: 0.7 %); format: functional
MCF7 [27] = test: Cell cycle arrest in human MCF7 cells assessed as accumulation at G0/G1 phase at 2 uM after 16 hrs using propidium iodide staining by flow cytometry (reference value: 46.01 %); format: functional
MCF7 [28] = test: Induction of apoptosis in human MCF7 cells assessed as late apoptotic cells at 2 uM after 8 hrs using Annexin V/PI double staining by flow cytometry (reference value: 6.8 %); format: functional
MCF7 [29] = test: Cell cycle arrest in human MCF7 cells assessed as accumulation at G2/M phase at 2 uM after 8 hrs using propidium iodide staining by flow cytometry (reference value: 19.35 %); format: functional
MCF7 [30] = test: Induction of apoptosis in human MCF7 cells assessed as necrotic cells at 4 uM after 16 hrs using Annexin V/PI double staining by flow cytometry (reference value: 0.7 %); format: functional
MCF7 [31] = test: Induction of apoptosis in human MCF7 cells assessed as late apoptotic cells at 2 uM after 16 hrs using Annexin V/PI double staining by flow cytometry (reference value: 0.7 %); format: functional
MCF7 [32] = test: Ratio of IC50 Jaspine B to compound IC50 for human MCF7 cells after 48 hrs by MTT assay; format: functional
MCF7 [33] = test: Induction of apoptosis in human MCF7 cells assessed as early apoptotic cells at 4 uM after 16 hrs using Annexin V/PI double staining by flow cytometry (reference value: 11.1 %); format: functional
MCF7 [34] = test: Induction of apoptosis in human MCF7 cells assessed as early apoptotic cells at 4 uM after 8 hrs using Annexin V/PI double staining by flow cytometry (reference value: 8.2 %); format: functional
MCF7 [35] = test: Induction of apoptosis in human MCF7 cells assessed as viable cells at 4 uM after 16 hrs using Annexin V/PI double staining by flow cytometry (reference value: 87.5 %); format: functional; details: MCF7, 16 h, read-out: Activity
MCF7 [36] = test: Induction of apoptosis in human MCF7 cells assessed as necrotic cells at 8 uM after 8 hrs using Annexin V/PI double staining by flow cytometry (reference value: 0.6 %); format: functional
MCF7 [37] = test: Cell cycle arrest in human MCF7 cells assessed as accumulation at S phase at 8 uM after 8 hrs using propidium iodide staining by flow cytometry (reference value: 33.03 %); format: functional
MCF7 [38] = test: Induction of apoptosis in human MCF7 cells assessed as necrotic cells at 8 uM after 16 hrs using Annexin V/PI double staining by flow cytometry (reference value: 0.7 %); format: functional
MCF7 [39] = test: Cell cycle arrest in human MCF7 cells assessed as accumulation at S phase at 8 uM after 16 hrs using propidium iodide staining by flow cytometry (reference value: 30.05 %); format: functional
MCF7 [40] = test: Induction of apoptosis in human MCF7 cells assessed as viable cells at 4 uM after 8 hrs using Annexin V/PI double staining by flow cytometry (reference value: 84.3 %); format: functional; details: MCF7, 8 h, read-out: Activity
MCF7 [41] = test: Cell cycle arrest in human MCF7 cells assessed as accumulation at S phase at 2 uM after 8 hrs using propidium iodide staining by flow cytometry (reference value: 33.03 %); format: functional
MCF7 [42] = test: Induction of apoptosis in human MCF7 cells assessed as late apoptotic cells at 8 uM after 16 hrs using Annexin V/PI double staining by flow cytometry (reference value: 0.7 %); format: functional
MCF7 [43] = test: Induction of apoptosis in human MCF7 cells assessed as viable cells at 8 uM after 16 hrs using Annexin V/PI double staining by flow cytometry (reference value: 87.5 %); format: functional; details: MCF7, 16 h, read-out: Activity
MCF7 [44] = test: Cell cycle arrest in human MCF7 cells assessed as accumulation at G2/M phase at 8 uM after 8 hrs using propidium iodide staining by flow cytometry (reference value: 19.35 %); format: functional
MCF7 [45] = test: Cell cycle arrest in human MCF7 cells assessed as accumulation at G0/G1 phase at 4 uM after 16 hrs using propidium iodide staining by flow cytometry (reference value: 46.01 %); format: functional
MCF7 [46] = test: Induction of apoptosis in human MCF7 cells assessed as late apoptotic cells at 8 uM after 8 hrs using Annexin V/PI double staining by flow cytometry (reference value: 6.8 %); format: functional
MCF7 [47] = test: Induction of apoptosis in human MCF7 cells assessed as viable cells at 8 uM after 8 hrs using Annexin V/PI double staining by flow cytometry (reference value: 84.3 %); format: functional; details: MCF7, 8 h, read-out: Activity
MCF7 [48] = test: Induction of apoptosis in human MCF7 cells assessed as necrotic cells at 2 uM after 8 hrs using Annexin V/PI double staining by flow cytometry (reference value: 0.6 %); format: functional

Q: For CCCCCCCn1cc(COC[C@@H]2OC[C@H](N)[C@@H]2O)nn1, which IC50 (MCF7 [1]) is on record?
A: > 128 µM

Q: And the IC50 [2]?
A: > 128 µM

Q: What about the IC50 (MGC-803 [3]) of the same molecule?
A: > 128 µM

Q: Which results are given for CCCCCCCCCCCCCCCCCCn1cc(COC[C@@H]2OC[C@H](N)[C@@H]2O)nn1?
A: IC50 (MCF7 [1]): 7.58 µM; IC50 [2]: 17.8 µM; IC50 (MGC-803 [3]): 15.4 µM

Q: For CCCCCCCCCCCCCCCCn1cc(COC[C@@H]2OC[C@H](N)[C@@H]2O)nn1, which IC50 (MCF7 [1]) is on record?
A: 3.3 µM

Q: And the IC50 [2]?
A: 20 µM

Q: And the IC50 (MGC-803 [3])?
A: 27.9 µM

Q: With CCCCCCCn1cc(COC[C@@H]2OC[C@H](N)[C@H]2O)nn1 as the molecule, how does the IC50 (MCF7 [1]) read?
A: > 128 µM

Q: And the IC50 [2]?
A: > 128 µM

Q: What about the IC50 (MGC-803 [3]) of the same molecule?
A: > 128 µM

Q: With CCCCCCCCCCn1cc(COC[C@@H]2OC[C@H](N)[C@H]2O)nn1 as the molecule, how does the IC50 (MCF7 [1]) read?
A: 45 µM

Q: And the IC50 [2]?
A: 43.1 µM

Q: What about the IC50 (MGC-803 [3]) of the same molecule?
A: 57.4 µM

Q: With CCCCCCCCCCCCCCn1cc(COC[C@@H]2OC[C@H](N)[C@@H]2O)nn1 as the molecule, how does the IC50 (MCF7 [1]) read?
A: 1.85 µM

Q: And the IC50 [2]?
A: 7.83 µM

Q: And the IC50 (MGC-803 [3])?
A: 8.21 µM

Q: For O=c1[nH]cc(F)c(=O)[nH]1 [FLUOROURACIL], which IC50 (MCF7 [1]) is on record?
A: 3.52 µM

Q: And the IC50 [2]?
A: 9.45 µM

Q: What about the IC50 (MGC-803 [3]) of the same molecule?
A: 11.3 µM

Q: Which results are given for CCCCCCCCCCCCCCCCn1cc(COC[C@@H]2OC[C@H](N)[C@H]2O)nn1?
A: IC50 (MCF7 [1]): 2.26 µM; IC50 [2]: 6.31 µM; IC50 (MGC-803 [3]): 5.34 µM

Q: What does the source list for CCCCCCCCCCCCCCCCCCn1cc(COC[C@@H]2OC[C@H](N)[C@H]2O)nn1?
A: Activity (MCF7 [4]): 23.8%; viability at 2 µM (MCF7 [5]): 81%; Activity (MCF7 [6]): 31.4%; Activity (MCF7 [7]): 17.16%; Activity (MCF7 [8]): 28.6%; IC50 (MCF7 [1]): 1.93 µM; Activity (MCF7 [9]): 14.1%; Activity (MCF7 [10]): 4.9%; Activity (MCF7 [11]): 36.4%; Activity (MCF7 [12]): 25.7%; Activity (MCF7 [13]): 12%; viability at 2 µM (MCF7 [14]): 58.5%; Activity (MCF7 [15]): 19.11%; Activity (MCF7 [16]): 28.66%; Activity (MCF7 [17]): 30.72%; Activity (MCF7 [18]): 42.27%; Activity (MCF7 [19]): 20.04%; Ratio IC50 [20]: 2; Ratio IC50 (MGC-803 [21]): 2; Activity (MCF7 [22]): 47.4%; Activity (MCF7 [23]): 0.5%; Activity (MCF7 [24]): 33.13%; Activity (MCF7 [25]): 57.9%; Activity (MCF7 [26]): 11.6%; Activity (MCF7 [27]): 48.63%; Activity (MCF7 [28]): 5.9%; Activity (MCF7 [29]): 27.97%; Activity (MCF7 [30]): 5.2%; Activity (MCF7 [31]): 5.1%; Ratio IC50 (MCF7 [32]): 2; Activity (MCF7 [33]): 45%; Activity (MCF7 [34]): 13.9%; viability at 4 µM (MCF7 [35]): 38.2%; Activity (MCF7 [36]): 1.4%; Activity (MCF7 [37]): 36.69%; IC50 [2]: 2.29 µM; Activity (MCF7 [38]): 5.5%; Activity (MCF7 [39]): 23.53%; viability at 4 µM (MCF7 [40]): 71.5%; Activity (MCF7 [41]): 29.66%; Activity (MCF7 [42]): 12.5%; IC50 (MGC-803 [3]): 3.11 µM; viability at 8 µM (MCF7 [43]): 24%; Activity (MCF7 [44]): 39.13%; Activity (MCF7 [45]): 42.05%; Activity (MCF7 [46]): 18.6%; viability at 8 µM (MCF7 [47]): 56.3%; Activity (MCF7 [48]): 1.2%
